Consider 15 compounds from patent US7271188B2, “Imidazolidine derivatives” (Chugai Seikayu Kabushiki Kaisha, priority 2003, dated 2007).

Structures are written as SMILES. Where two headings read alike, the source gives them in different places. Some results are limits rather than exact numbers.

Data set [1] addresses T1, human androgen receptor (Homo sapiens, UniProt P10275).
T1 construct: expressed in transfected cells; host or cells: HeLa cells (clone 11A11B2), stably co-transfected with MMTV-Luc-Hyg reporter
T1 sequence (P10275 1-920): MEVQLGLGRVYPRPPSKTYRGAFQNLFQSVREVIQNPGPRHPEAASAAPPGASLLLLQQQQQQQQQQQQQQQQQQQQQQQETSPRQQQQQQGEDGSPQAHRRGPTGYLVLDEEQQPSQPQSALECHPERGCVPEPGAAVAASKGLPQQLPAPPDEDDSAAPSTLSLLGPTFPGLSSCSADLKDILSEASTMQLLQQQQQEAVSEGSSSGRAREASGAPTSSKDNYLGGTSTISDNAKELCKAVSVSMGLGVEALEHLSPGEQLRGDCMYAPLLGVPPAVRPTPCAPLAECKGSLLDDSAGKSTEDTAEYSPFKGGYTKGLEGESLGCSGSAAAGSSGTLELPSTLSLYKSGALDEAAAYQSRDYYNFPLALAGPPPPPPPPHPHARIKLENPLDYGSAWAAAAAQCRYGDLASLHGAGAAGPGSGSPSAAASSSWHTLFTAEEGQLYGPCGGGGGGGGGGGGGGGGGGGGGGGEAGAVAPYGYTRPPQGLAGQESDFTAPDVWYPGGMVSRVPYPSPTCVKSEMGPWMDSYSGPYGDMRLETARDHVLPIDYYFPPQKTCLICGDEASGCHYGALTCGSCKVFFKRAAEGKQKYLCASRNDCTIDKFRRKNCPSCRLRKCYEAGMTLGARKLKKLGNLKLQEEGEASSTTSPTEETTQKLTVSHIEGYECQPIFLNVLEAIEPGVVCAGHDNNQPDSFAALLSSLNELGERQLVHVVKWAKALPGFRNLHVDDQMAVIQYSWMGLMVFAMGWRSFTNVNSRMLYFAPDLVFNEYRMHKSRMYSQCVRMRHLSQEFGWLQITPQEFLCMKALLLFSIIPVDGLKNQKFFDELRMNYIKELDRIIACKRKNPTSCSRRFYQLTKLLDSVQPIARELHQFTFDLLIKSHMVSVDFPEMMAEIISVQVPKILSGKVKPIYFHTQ
Description: Test Example 1: agonist effect, androgen receptor reporter gene assay in 11A11B2 cells. Type of data set: cell-based. The settings on record: compound concentration showing transcription activity of 5% (0.1 nmol/L DHT = 100%, assay medium alone = 0%), 48 hours. Here is the method: (§1) HeLa cells (purchased from Dai-Nippon Seiyaku K. K.) were cultured overnight in Dulbecco's Modified Eagle Medium containing no phenol red, but containing 3% charcoal-treated fetal bovine serum (hereafter referred to as DCC-FBS) (this medium is hereafter referred to as phenol-red-free DMEM). An MMTV-Luc-Hyg vector (reporter plasmid with […], containing an androgen response element and a hygromycin resistance gene: a vector obtained by substituting the chloramphenicol acetyl transferease gene of a GM-CAT vector (A.T.C.C No. 67282) purchased from the A.T.C.C. for the firefly luciferase gene, and inserting a hygromycin resistance gene), and pSG5-hAR-neo (human androgen receptor expression vector: a vector having an androgen receptor gene under the control of the SV40 promoter, and having a neomycin resistance gene inserted as a drug resistance gene) were transfected into the HeLa cells using an FuGENE™ 6 Transfection Reagent (obtained from Roche).
(§2) The clone cells thus obtained (11A11B2 cells) were maintained and propagated using DMEM containing 400 μg/mL neomycin, 200 μg/mL hygromycin and 10% FBS, and were propagated using phenol-red-free DMEM containing 10% DCC-FBS three to four days prior to the performance of an androgen receptor reporter gene assay.
The 11A11B2 cells were inoculated in a white clear-bottomed 96-well microplate (COSTAR) so that the cell concentration was 1.0×10^4/well, and were cultured overnight using phenol-red-free DMEM containing 3% DCC-FBS (hereafter referred to as the assay medium). Samples of the assay medium containing the compounds of the examples and compounds of the comparative examples were added so that the final concentrations of the compounds of the examples and compounds of the comparative examples were 1, 10, 100, 1,000 and 10,000 nmol/L (however, in the case of the compounds of Examples 1 and 2, the compounds were added so that the final concentrations were 1, 10, 100, 1,000, 10,000 and 100,000 nmol/L), and the cells were cultured for 48 hours, after which the transcription activity value was measured. The transcription activity was measured using a Bright-Glo™ Luciferase Assay System (Promega).
The transcription activity rates of the compounds of the examples were calculated from the transcription activity measured by the abovementioned method, with the transcription activity value obtained at 0.1 nmol/L DHT taken as 100%, and the transcription activity value in the case of the assay medium alone taken as 0%. The compound concentration showing a transcription activity of 5% (EC5 value) was calculated from a linear equation for two points on either side of 5%.
Background: A reporter such as luciferase makes a cellular process visible.

For data set [2], the target named is T1, human androgen receptor. Description: Test Example 2: antagonist effect, androgen receptor reporter gene assay in 11A11B2 cells with 0.1 nmol/L DHT. Type of data set: cell-based. The method, then:
as §1, §2
The 11A11B2 cells were inoculated in a white clear-bottomed 96-well microplate (COSTAR) so that the cell concentration was 1.0×10^4/well, and were cultured overnight using phenol-red-free DMEM containing 3% DCC-FBS (hereafter referred to as the assay medium). The assay medium containing DHT was added so that the final concentration of DHT was 0.1 nmol/L, and samples of the assay medium containing the compounds of the examples or compounds of the comparative examples were added so that the final concentrations of the compounds of the examples or compounds of the comparative examples were 1, 10, 100, 1,000 and 10,000 nmol/L, respectively. After culturing for 48 hours, the transcription activity values were measured. The transcription activity was measured using a Bright-Glo™ Luciferase Assay System (Promega).
The transcription activity rates of the compounds of the examples were calculated from the transcription activity measured by the abovementioned method, with the transcription activity value obtained at 0.1 nmol/L DHT taken as 100%, and the transcription activity value in the case of the assay medium alone taken as 0%.
Accordingly, the value obtained by subtracting the transcription activity rate of Test Example 1 (Investigation of Agonist Activity) from the transcription activity rate of Test Example 2 (Investigation of Antagonist Activity) was used to calculate the compound concentration at which a transcription activity of 50% was shown (IC50 value). The IC50 value was calculated from a linear equation for two points on either side of 50%.

For data set [3] the following is noted: reports; cited from earlier work.
The next data set addresses androgen receptor (Homo sapiens, UniProt P10275). The settings on record: at a concentration of 10 μmol/L; cited from earlier work.
For data set [4] the following is noted: prostate cancer patients treated with flutamide; cited from earlier work.
In another data set the test system is castrated rats. The settings on record: continuously administered to castrated rats for two weeks; cited from earlier work.
Where [5] appears, read: concentration giving 50% transcription activity after subtracting the Test Example 1 agonist rate, 0.1 nmol/L DHT, 11A11B2 cells, 48 hours, read-out: IC50.

In turn, `CN1C(=S)N(c2ccc(C#N)c(C(F)(F)F)c2)C(=O)C1(C)C` [Comparative Example 1, 4-(5-oxo-2-thioxo-3,4,4-trimethyl-1-imidazolidinyl)-2-trifluoromethylbenzonitrile, reference compound] returned an EC5 on human androgen receptor [1] of 0.08 nM. Further, half-maximal inhibition on human androgen receptor [2] (IC50) required 1 nM. As for `CC(=O)NCCN1C(=S)N(c2ccc(C#N)c(C(F)(F)F)c2)C(=O)C1(C)C` [Comparative Example 2, 4-[3′-(2″-N-acetylaminoethyl)-4′,4′-dimethyl-5′-oxo-2′-thioxo-1′-imidazolidinyl]-2-trifluoromethylbenzonitrile, reference compound], at human androgen receptor [1], the EC5 is listed as 3000 nM. For the same compound, the IC50 (usually the midpoint of a concentration-inhibition curve) on human androgen receptor [2] (setting [5]) came out at 800 nM. `CC(O)(CS(=O)(=O)c1ccc(F)cc1)C(=O)Nc1ccc(C#N)c(C(F)(F)F)c1` (stereo not drawn) [Comparative Example 3, bicalutamide]: the side effects entry in data set [3] is reported as “liver toxicity”.

Turning to `CC(C)(O)C(=O)Nc1ccc([N+](=O)[O-])c(C(F)(F)F)c1` [Comparative Example 4, hydroxyflutamide], the EC5 on human androgen receptor [1] is recorded as 10 nM. Further, the “androgen receptor transcription activity” value on androgen receptor is “increase in androgen receptor transcription activity”. Also, the “concentration in the blood” value in data set [4] was “several”. On human androgen receptor [1], `CC1(C)C(=O)N(c2ccc(C#N)c(C(F)(F)F)c2)C(=S)N1CCCS(N)(=O)=O` [Example 1, 4-[3′-(3″-aminosulfonylpropyl)-4′,4′-dimethyl-5′-oxo-2′-thioxo-1′-imidazolidinyl]-2-trifluoromethylbenzonitrile] returned an EC5 of 20000 nM. Also, at human androgen receptor [2], the IC50 stood at 200 nM. For the compound `CC1(C)C(=O)N(c2ccc(C#N)c(C(F)(F)F)c2)C(=S)N1CCCCS(N)(=O)=O` [Example 2, 4-[3′-(4″-aminosulfonylbutyl)-4′,4′-dimethyl-5′-oxo-2′-thioxo-1′-imidazolidinyl]-2-trifluoromethylbenzonitrile], the EC5 at human androgen receptor [1] was above 100000 nM. Moreover, the IC50 on human androgen receptor [2] (setting [5]) came out at 600 nM.

Compound `CC1(C)C(=O)N(c2ccc(C#N)c(C(F)(F)F)c2)C(=S)N1CCCCCCS(N)(=O)=O` [Example 3, 4-[3′-(6″-aminosulfonylhexyl)-4′,4′-dimethyl-5′-oxo-2′-thioxo-1′-imidazolidinyl]-2-trifluoromethylbenzonitrile] showed an EC5 on human androgen receptor [1] of 3000 nM. The IC50 on human androgen receptor [2] (setting [5]) turned out to be 200 nM. Compound `CC1(C)C(=O)N(c2ccc(C#N)c(C(F)(F)F)c2)C(=S)N1CCCCCS(N)(=O)=O` [Example 7, 4-[3′-(5″-aminosulfonylpentyl)-4′,4′-dimethyl-5′-oxo-2′-thioxo-1′-imidazolidinyl]-2-trifluoromethylbenzonitrile] gave an EC5 at human androgen receptor [1] above 10000 nM. Moreover, the IC50 on human androgen receptor [2] (setting [5]) was 900 nM.

On human androgen receptor [1], `CN(C)S(=O)(=O)CCCCN1C(=S)N(c2ccc(C#N)c(C(F)(F)F)c2)C(=O)C1(C)C` [Example 8, 4-[3′-(4″-N,N-dimethylaminosulfonylbutyl)-4′,4′-dimethyl-5′-oxo-2′-thioxo-1′-imidazolidinyl]-2-trifluoromethylbenzonitrile] had an EC5 of 2000 nM. At human androgen receptor [2], this compound had a half-maximal inhibitory concentration (IC50) of 100 nM. Consider `CN(C)S(=O)(=O)CCCCCN1C(=S)N(c2ccc(C#N)c(C(F)(F)F)c2)C(=O)C1(C)C` [Example 10, 4-[3′-(5″-N,N-dimethylaminosulfonylpentyl)-4′,4′-dimethyl-5′-oxo-2′-thioxo-1′-imidazolidinyl]-2-trifluoromethylbenzonitrile], for which the EC5 on human androgen receptor [1] was 2000 nM. In addition, the IC50 on human androgen receptor [2] (setting [5]) turned out to be 200 nM.

On human androgen receptor [1], `CNS(=O)(=O)CCCCN1C(=S)N(c2ccc(C#N)c(C(F)(F)F)c2)C(=O)C1(C)C` [Example 16, 4-[3′-(4″-N-methylaminosulfonylbutyl)-4′,4′-dimethyl-5′-oxo-2′-thioxo-1′-imidazolidinyl]-2-trifluoromethylbenzonitrile] yielded an EC5 above 10000 nM. The half-maximal inhibitory concentration (IC50) on human androgen receptor [2] (setting [5]) turned out to be 700 nM. As for `CC1(C)C(=O)N(c2ccc(C#N)c(C(F)(F)F)c2)C(=S)N1CCS(N)(=O)=O` [Example 18, 4-[3′-(2″-aminosulfonylethyl)-4′,4′-dimethyl-5′-oxo-2′-thioxo-1′-imidazolidinyl]-2-trifluoromethylbenzonitrile], the EC5 on human androgen receptor [1] worked out at 7000 nM. The compound further gave an IC50 against human androgen receptor [2] of 600 nM.

Consider `CC(=O)O[C@]1(C(C)=O)CC[C@H]2[C@@H]3C=C(Cl)C4=CC(=O)CC[C@]4(C)[C@H]3CC[C@@]21C` [chlormadinone acetate], for which the “weight of the prostate gland” value with castrated rats is on record as “increase in the weight of the prostate gland”. For the compound `CC(=O)O[C@]1(C(C)=O)CC[C@H]2[C@@H]3C=C(Cl)C4=CC(=O)[C@@H]5C[C@@H]5[C@]4(C)[C@H]3CC[C@@]21C` [cyproterone acetate], the “weight of the prostate gland” value in the data set with castrated rats is “increase in the weight of the prostate gland”. As to `CC(C)C(=O)Nc1ccc([N+](=O)[O-])c(C(F)(F)F)c1` [flutamide], the side effects entry in data set [3] is “liver toxicity”.
